According to ChEMBL document CHEMBL1201862, “PubChem BioAssay data set” (2004):
The source made the active and inactive calls.

Legend:
[1] = test system: HeLa; assay: ATP-based viability loss in HeLa cells – cell-based, CellTiter-Glo luminescence, cherry-pick samples, cytotoxicity control for MITF activator project, dose response (AID 540259); assay type: functional; details: Homo sapiens
[2] = target: Mu-type opioid receptor (Homo sapiens, UniProt P35372); assay: (§1) Counterscreen for agonists of heterodimerization of the mu 1 (OPRM1) and delta 1 (OPRD1) opioid receptors: Luminescence-based cell-based high throughput dose response assay to identify agonists of OPRM1 homodimerization.; assay type: functional
[3] = target: 5-hydroxytryptamine receptor 5A (Homo sapiens, UniProt P47898); assay: Counterscreen for agonists of OPRM1-OPRD1 heterodimerization: luminescence-based cell-based high throughput dose response assay to identify agonists of 5-hydroxytryptamine (serotonin) 5A receptor (HTR5A). [Related pubchem assays (depositor defined):AID504326, AID504355, AID504692, AID504904, AID504905]; assay type: functional
[4] = target: Opioid receptors; mu & delta (Homo sapiens, UniProt P41143+P35372); assay: OPRM1-OPRD1 heterodimer agonist potency – cell-based, luminescence, dose response (AID 588407); assay type: functional
[5] = target: Delta-type opioid receptor (Homo sapiens, UniProt P41143); assay: as §1, with “of OPRD1” for “of OPRM1”, “homodimerization. [Related pubchem assays (depositor defined):AID504326, AID504355, AID504692, AID504904, AID504905]” for “homodimerization.”; assay type: functional
[6] = test system: Vero; assay: cells; assay type: functional, cell-based; details: Chlorocebus sabaeus
[7] = test system: Vero; assay: cells; assay type: functional; details: Chlorocebus sabaeus
[8] = target: Hexokinase HKDC1 (Homo sapiens, UniProt Q2TB90); assay: analog inhibition of human HKDC1 activity – biochemical, set 2, SAR follow-up (AID 588355); assay type: functional
[9] = target: Hexokinase-1 (Homo sapiens, UniProt P19367); assay: hexokinase 1 activity inhibitors, potency – biochemical, set 2, resazurin fluorescence coupled readout, selectivity assay for HKDC1 inhibitor project, SAR follow-up (AID 588356); assay type: functional
Sequence of Hexokinase-1 (P19367 whole entry): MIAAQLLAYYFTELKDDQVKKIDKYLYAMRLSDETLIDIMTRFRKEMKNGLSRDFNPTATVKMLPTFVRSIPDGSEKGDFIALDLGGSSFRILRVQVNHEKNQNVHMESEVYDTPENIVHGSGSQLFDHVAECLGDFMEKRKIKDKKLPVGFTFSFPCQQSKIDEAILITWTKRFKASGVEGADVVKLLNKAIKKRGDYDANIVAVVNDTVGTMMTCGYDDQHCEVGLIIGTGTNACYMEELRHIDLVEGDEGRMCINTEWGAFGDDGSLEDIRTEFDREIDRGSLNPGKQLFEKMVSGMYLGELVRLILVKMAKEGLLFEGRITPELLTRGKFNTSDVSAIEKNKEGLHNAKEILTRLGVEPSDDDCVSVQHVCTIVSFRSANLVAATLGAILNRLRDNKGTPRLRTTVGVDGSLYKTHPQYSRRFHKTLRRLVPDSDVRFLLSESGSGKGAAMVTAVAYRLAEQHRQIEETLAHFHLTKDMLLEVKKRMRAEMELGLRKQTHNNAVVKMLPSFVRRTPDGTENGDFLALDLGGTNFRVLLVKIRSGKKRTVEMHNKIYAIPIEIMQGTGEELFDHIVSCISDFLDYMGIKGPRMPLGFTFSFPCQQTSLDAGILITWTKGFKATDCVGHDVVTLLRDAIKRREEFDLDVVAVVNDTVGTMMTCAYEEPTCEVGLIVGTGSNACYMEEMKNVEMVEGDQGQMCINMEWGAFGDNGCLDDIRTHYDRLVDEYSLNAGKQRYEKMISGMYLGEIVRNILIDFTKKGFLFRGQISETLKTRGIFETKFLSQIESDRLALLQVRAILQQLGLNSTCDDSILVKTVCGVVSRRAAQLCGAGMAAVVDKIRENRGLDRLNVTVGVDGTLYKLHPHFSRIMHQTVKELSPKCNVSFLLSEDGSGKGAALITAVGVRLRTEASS

Sequence of 5-hydroxytryptamine receptor 5A (P47898 whole entry): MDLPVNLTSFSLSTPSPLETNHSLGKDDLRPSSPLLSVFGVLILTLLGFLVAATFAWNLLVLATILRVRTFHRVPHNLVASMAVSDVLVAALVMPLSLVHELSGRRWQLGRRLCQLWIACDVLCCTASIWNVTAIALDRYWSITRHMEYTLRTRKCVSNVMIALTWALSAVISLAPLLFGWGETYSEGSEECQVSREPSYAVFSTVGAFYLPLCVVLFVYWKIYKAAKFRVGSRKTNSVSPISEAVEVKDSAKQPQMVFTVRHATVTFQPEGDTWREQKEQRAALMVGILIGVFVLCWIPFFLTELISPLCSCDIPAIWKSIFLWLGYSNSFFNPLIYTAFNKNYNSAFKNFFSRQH
Sequence of Delta-type opioid receptor (P41143 whole entry): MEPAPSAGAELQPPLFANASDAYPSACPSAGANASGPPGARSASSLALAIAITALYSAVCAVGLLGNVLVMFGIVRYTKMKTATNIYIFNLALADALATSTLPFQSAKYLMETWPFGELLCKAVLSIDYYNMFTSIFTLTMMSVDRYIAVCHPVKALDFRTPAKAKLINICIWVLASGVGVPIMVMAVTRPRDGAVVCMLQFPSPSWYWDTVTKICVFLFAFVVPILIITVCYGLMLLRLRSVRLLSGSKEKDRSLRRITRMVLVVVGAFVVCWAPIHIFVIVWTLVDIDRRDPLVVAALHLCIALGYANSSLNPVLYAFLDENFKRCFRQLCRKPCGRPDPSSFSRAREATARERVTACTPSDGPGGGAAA
Sequence of Hexokinase HKDC1 (Q2TB90 whole entry): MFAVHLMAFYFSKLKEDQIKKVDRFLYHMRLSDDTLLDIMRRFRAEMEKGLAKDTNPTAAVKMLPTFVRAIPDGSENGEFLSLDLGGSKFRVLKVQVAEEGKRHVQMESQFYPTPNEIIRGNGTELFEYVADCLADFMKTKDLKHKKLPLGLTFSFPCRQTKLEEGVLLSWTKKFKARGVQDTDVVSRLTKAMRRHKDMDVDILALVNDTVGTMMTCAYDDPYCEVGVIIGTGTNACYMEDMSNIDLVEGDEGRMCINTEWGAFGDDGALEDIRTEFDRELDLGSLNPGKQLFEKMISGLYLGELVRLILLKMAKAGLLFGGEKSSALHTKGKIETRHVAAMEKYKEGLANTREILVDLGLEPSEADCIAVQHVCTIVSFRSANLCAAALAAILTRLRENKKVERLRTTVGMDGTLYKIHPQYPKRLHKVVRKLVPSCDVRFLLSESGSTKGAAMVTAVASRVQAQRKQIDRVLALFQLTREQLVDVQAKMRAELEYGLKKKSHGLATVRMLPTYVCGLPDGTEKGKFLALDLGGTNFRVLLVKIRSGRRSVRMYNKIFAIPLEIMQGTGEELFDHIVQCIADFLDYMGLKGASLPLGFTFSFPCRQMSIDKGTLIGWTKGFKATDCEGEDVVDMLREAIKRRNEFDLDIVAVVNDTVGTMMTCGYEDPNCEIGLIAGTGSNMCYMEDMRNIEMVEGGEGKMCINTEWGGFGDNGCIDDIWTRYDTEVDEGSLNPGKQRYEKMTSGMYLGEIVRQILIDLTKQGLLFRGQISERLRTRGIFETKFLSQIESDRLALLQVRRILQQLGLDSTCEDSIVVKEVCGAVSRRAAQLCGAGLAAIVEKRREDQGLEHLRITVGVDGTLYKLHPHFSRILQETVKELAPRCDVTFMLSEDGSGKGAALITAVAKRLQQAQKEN
Sequence of Mu-type opioid receptor (P35372 whole entry): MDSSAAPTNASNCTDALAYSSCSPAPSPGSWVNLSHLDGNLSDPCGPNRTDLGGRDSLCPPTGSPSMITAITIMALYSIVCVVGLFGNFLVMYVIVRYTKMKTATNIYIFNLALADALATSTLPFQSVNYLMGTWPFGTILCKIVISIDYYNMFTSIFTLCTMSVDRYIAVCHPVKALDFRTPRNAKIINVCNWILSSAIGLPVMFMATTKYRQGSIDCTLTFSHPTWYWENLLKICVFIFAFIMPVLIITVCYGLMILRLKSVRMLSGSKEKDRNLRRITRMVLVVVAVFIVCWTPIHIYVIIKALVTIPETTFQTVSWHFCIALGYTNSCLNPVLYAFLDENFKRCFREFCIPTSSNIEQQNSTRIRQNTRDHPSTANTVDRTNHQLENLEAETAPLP

For `COc1ccc(C(S)=Nc2ccc(C)cc2)cc1`, the AC50 [1] was 194 µM (active).
`CO[C@H]1[C@H](O)[C@H](O[C@H]2CC[C@@]3(C=O)[C@H](CC[C@@H]4[C@@H]3CC[C@]3(C)[C@@H](C5=CC(=O)OC5)CC[C@]43O)C2)O[C@@H](C)[C@@H]1O` [PERUVOSIDE] was tested, and the EC50 [2] was > 92.5 µM (inactive), the EC50 [3] was > 92.5 µM (inactive) and the EC50 [4] was > 0.1268 µM. For the same compound, the EC50 [5] was > 92.5 µM (inactive), the IC50 [6] was < 0.05 µM (active) and the CC50 [7] was < 0.05 µM (active).
In the case of `CCOc1ccc(N2C(=O)c3cccnc3C2Nc2ccc(C)c(C)c2)cc1` (centres undefined), the IC50 [8] is reported as 77.1 µM (inactive) and the IC50 [9] is reported as > 80 µM (inactive).
